From PubChem BioAssay (NCI)
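How tested: cells in 96-well plates exposed to compound for 48 hours at five concentrations. GI50: concentration for 50% inhibition of growth. TGI is the concentration that stops growth completely.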

What was measured:
Assay in all cases: NCI anticancer screen, dose series, 48 h
K-562 leukemia = system: K-562 leukemia
786-0 renal = system: 786-0 renal
NCI-H226 lung = system: NCI-H226 lung
OVCAR-8 ovarian = system: OVCAR-8 ovarian
UO-31 renal = system: UO-31 renal
MOLT-4 leukemia = system: MOLT-4 leukemia
TK-10 renal = system: TK-10 renal
HL-60(TB) leukemia = system: HL-60(TB) leukemia
HCT-15 colon = system: HCT-15 colon
MALME-3M melanoma = system: MALME-3M melanoma
M14 melanoma = system: M14 melanoma
KM12 colon = system: KM12 colon
IGROV1 ovarian = system: IGROV1 ovarian
SF-539 CNS = system: SF-539 CNS
HCT-116 colon = system: HCT-116 colon
UACC-62 melanoma = system: UACC-62 melanoma
SNB-75 CNS = system: SNB-75 CNS
NCI-H23 lung = system: NCI-H23 lung
BT-549 breast = system: BT-549 breast
T-47D breast = system: T-47D breast
UACC-257 melanoma = system: UACC-257 melanoma
NCI-H460 lung = system: NCI-H460 lung
SNB-19 CNS = system: SNB-19 CNS
HOP-62 NSCLC = system: HOP-62 NSCLC
SW-620 colon = system: SW-620 colon
DU-145 prostate = system: DU-145 prostate
HS 578T breast = system: HS 578T breast
SN12C renal = system: SN12C renal
SK-OV-3 ovarian = system: SK-OV-3 ovarian
A498 renal = system: A498 renal
SF-268 CNS = system: SF-268 CNS
MDA-MB-435 = system: MDA-MB-435
NCI-H522 lung = system: NCI-H522 lung
A549 NSCLC = system: A549 NSCLC
SR leukemia = system: SR leukemia
SK-MEL-2 melanoma = system: SK-MEL-2 melanoma
U251 CNS = system: U251 CNS
SF-295 CNS = system: SF-295 CNS
RXF 393 renal = system: RXF 393 renal
HCC-2998 colon = system: HCC-2998 colon
CCRF-CEM leukemia = system: CCRF-CEM leukemia
CAKI-1 renal = system: CAKI-1 renal
PC-3 prostate = system: PC-3 prostate
OVCAR-4 ovarian = system: OVCAR-4 ovarian
MCF7 breast = system: MCF7 breast
ACHN renal = system: ACHN renal
SK-MEL-5 melanoma = system: SK-MEL-5 melanoma
NCI/ADR-RES ovarian = system: NCI/ADR-RES ovarian
OVCAR-3 ovarian = system: OVCAR-3 ovarian
HT29 colon = system: HT29 colon
OVCAR-5 ovarian = system: OVCAR-5 ovarian
MDA-MB-231 breast = system: MDA-MB-231 breast
LOX IMVI melanoma = system: LOX IMVI melanoma
SK-MEL-28 melanoma = system: SK-MEL-28 melanoma
EKVX NSCLC = system: EKVX NSCLC
COLO 205 colon = system: COLO 205 colon
RPMI-8226 leukemia = system: RPMI-8226 leukemia
HOP-92 NSCLC = system: HOP-92 NSCLC

`CCC(C)Nc1ccc(N)cc1` (centres undefined) showed a GI50 (K-562 leukemia) of 2.36 µM, a TGI (K-562 leukemia) of 10.4 µM and a GI50 (786-0 renal) of 3.89 µM. For the same compound, the TGI (786-0 renal) was 14.3 µM, the GI50 (NCI-H226 lung) was 4.39 µM and the TGI (NCI-H226 lung) was 19 µM. The GI50 (OVCAR-8 ovarian) was 4.19 µM, the TGI (OVCAR-8 ovarian) was 22.2 µM and the GI50 (UO-31 renal) was 3.3 µM. For the same compound, the TGI (UO-31 renal) was 14 µM, the GI50 (MOLT-4 leukemia) was 4.29 µM and the TGI (MOLT-4 leukemia) was 12.4 µM. It also gave a GI50 (TK-10 renal) of 5.72 µM, a TGI (TK-10 renal) of 25.3 µM and a GI50 (HL-60(TB) leukemia) of 1.48 µM. It also gave a TGI (HL-60(TB) leukemia) of 5.05 µM, a GI50 (HCT-15 colon) of 3.84 µM and a TGI (HCT-15 colon) of 15.6 µM. It also gave a GI50 (MALME-3M melanoma) of 2.65 µM, a TGI (MALME-3M melanoma) of 8.08 µM and a GI50 (M14 melanoma) of 4.72 µM. For the same compound, the TGI (M14 melanoma) was 15.5 µM, the GI50 (KM12 colon) was 4.09 µM and the TGI (KM12 colon) was 13.5 µM. The GI50 (IGROV1 ovarian) was 4.79 µM, the TGI (IGROV1 ovarian) was 20.5 µM and the GI50 (SF-539 CNS) was 5.16 µM. For the same compound, the TGI (SF-539 CNS) was 17.1 µM, the GI50 (HCT-116 colon) was 2.73 µM and the TGI (HCT-116 colon) was 8.73 µM. The GI50 (UACC-62 melanoma) was 2.91 µM, the TGI (UACC-62 melanoma) was 12.5 µM and the GI50 (SNB-75 CNS) was 4.25 µM. It also gave a TGI (SNB-75 CNS) of 20.3 µM, a GI50 (NCI-H23 lung) of 2.89 µM and a TGI (NCI-H23 lung) of 8.89 µM. For the same compound, the GI50 (BT-549 breast) was 6.26 µM, the TGI (BT-549 breast) was 20.9 µM and the GI50 (T-47D breast) was 3.63 µM. The TGI (T-47D breast) was 14.1 µM, the GI50 (UACC-257 melanoma) was 5.33 µM and the TGI (UACC-257 melanoma) was 16.9 µM. The GI50 (NCI-H460 lung) was 3.85 µM, the TGI (NCI-H460 lung) was 13.9 µM and the GI50 (SNB-19 CNS) was 8.42 µM. The TGI (SNB-19 CNS) was 52.5 µM, the GI50 (HOP-62 NSCLC) was 4.14 µM and the TGI (HOP-62 NSCLC) was 14.9 µM. The GI50 (SW-620 colon) was 4.16 µM, the TGI (SW-620 colon) was 15.5 µM and the GI50 (DU-145 prostate) was 5.75 µM. The TGI (DU-145 prostate) was 19.7 µM, the GI50 (HS 578T breast) was 4.35 µM and the TGI (HS 578T breast) was 24.4 µM. It also gave a GI50 (SN12C renal) of 2.95 µM, a TGI (SN12C renal) of 12.9 µM and a GI50 (SK-OV-3 ovarian) of 4.98 µM. It also gave a TGI (SK-OV-3 ovarian) of 93.3 µM, a GI50 (A498 renal) of 7.9 µM and a TGI (A498 renal) of 23.4 µM. The GI50 (SF-268 CNS) was 5.61 µM, the TGI (SF-268 CNS) was 19.2 µM and the GI50 (MDA-MB-435) was 4.11 µM. For the same compound, the TGI (MDA-MB-435) was 15.3 µM, the GI50 (NCI-H522 lung) was 3.07 µM and the TGI (NCI-H522 lung) was 9.07 µM. It also gave a GI50 (A549 NSCLC) of 4.7 µM, a TGI (A549 NSCLC) of 48.5 µM and a GI50 (SR leukemia) of 2.1 µM. It also gave a TGI (SR leukemia) of 5.4 µM, a GI50 (SK-MEL-2 melanoma) of 3.21 µM and a TGI (SK-MEL-2 melanoma) of 8.61 µM. The GI50 (U251 CNS) was 3.64 µM, the TGI (U251 CNS) was 13 µM and the GI50 (SF-295 CNS) was 4.91 µM. The TGI (SF-295 CNS) was 20.1 µM, the GI50 (RXF 393 renal) was 4.62 µM and the TGI (RXF 393 renal) was 15.8 µM. It also gave a GI50 (HCC-2998 colon) of 4.39 µM, a TGI (HCC-2998 colon) of 16.1 µM and a GI50 (CCRF-CEM leukemia) of 3.33 µM. It also gave a TGI (CCRF-CEM leukemia) of 17.9 µM, a GI50 (CAKI-1 renal) of 16.7 µM and a TGI (CAKI-1 renal) greater than 100 µM. It also gave a GI50 (PC-3 prostate) of 2.56 µM, a TGI (PC-3 prostate) of 11.2 µM and a GI50 (OVCAR-4 ovarian) of 3.18 µM. For the same compound, the TGI (OVCAR-4 ovarian) was 38.6 µM, the GI50 (MCF7 breast) was 3.41 µM and the TGI (MCF7 breast) was 12.4 µM. It also gave a GI50 (ACHN renal) of 3.73 µM, a TGI (ACHN renal) of 13.3 µM and a GI50 (SK-MEL-5 melanoma) of 2.86 µM. The TGI (SK-MEL-5 melanoma) was 9.05 µM, the GI50 (NCI/ADR-RES ovarian) was 10.6 µM and the TGI (NCI/ADR-RES ovarian) was 28 µM. It also gave a GI50 (OVCAR-3 ovarian) of 2.28 µM, a TGI (OVCAR-3 ovarian) of 5.54 µM and a GI50 (HT29 colon) of 3.16 µM. For the same compound, the TGI (HT29 colon) was 10.7 µM, the GI50 (OVCAR-5 ovarian) was 13.8 µM and the TGI (OVCAR-5 ovarian) was 39.8 µM. It also gave a GI50 (MDA-MB-231 breast) of 2.91 µM, a TGI (MDA-MB-231 breast) of 12.8 µM and a GI50 (LOX IMVI melanoma) of 3.43 µM. The TGI (LOX IMVI melanoma) was 11 µM, the GI50 (SK-MEL-28 melanoma) was 6.37 µM and the TGI (SK-MEL-28 melanoma) was 18.9 µM. For the same compound, the GI50 (EKVX NSCLC) was 3.47 µM, the TGI (EKVX NSCLC) was 14.8 µM and the GI50 (COLO 205 colon) was 1.72 µM. For the same compound, the TGI (COLO 205 colon) was 3.19 µM.

Compound `COC1=CC2(CC(OC)=C1OC)OC21COc2ccccc2C1=O` (centres undefined) has a TGI (K-562 leukemia) greater than 100 µM, a TGI (786-0 renal) greater than 100 µM and a TGI (NCI-H226 lung) greater than 100 µM. The TGI (RPMI-8226 leukemia) was greater than 100 µM, the TGI (OVCAR-8 ovarian) was greater than 100 µM and the TGI (UO-31 renal) was greater than 100 µM. For the same compound, the TGI (HOP-92 NSCLC) was greater than 100 µM, the TGI (MOLT-4 leukemia) was greater than 100 µM and the TGI (TK-10 renal) was greater than 100 µM. For the same compound, the TGI (HL-60(TB) leukemia) was greater than 100 µM, the TGI (HCT-15 colon) was greater than 100 µM and the TGI (MALME-3M melanoma) was greater than 100 µM. It also gave a TGI (M14 melanoma) greater than 100 µM, a TGI (KM12 colon) greater than 100 µM and a TGI (IGROV1 ovarian) greater than 100 µM. For the same compound, the TGI (SF-539 CNS) was greater than 100 µM, the TGI (HCT-116 colon) was greater than 100 µM and the TGI (UACC-62 melanoma) was greater than 100 µM. It also gave a TGI (SNB-75 CNS) greater than 100 µM, a TGI (NCI-H23 lung) greater than 100 µM and a TGI (BT-549 breast) greater than 100 µM. For the same compound, the TGI (T-47D breast) was greater than 100 µM, the TGI (UACC-257 melanoma) was greater than 100 µM and the TGI (NCI-H460 lung) was greater than 100 µM. The TGI (SNB-19 CNS) was greater than 100 µM, the TGI (HOP-62 NSCLC) was greater than 100 µM and the TGI (SW-620 colon) was greater than 100 µM. For the same compound, the TGI (HS 578T breast) was greater than 100 µM, the TGI (SN12C renal) was greater than 100 µM and the TGI (SK-OV-3 ovarian) was greater than 100 µM. It also gave a TGI (A498 renal) greater than 100 µM, a TGI (SF-268 CNS) greater than 100 µM and a TGI (MDA-MB-435) greater than 100 µM. For the same compound, the TGI (NCI-H522 lung) was greater than 100 µM, the TGI (A549 NSCLC) was greater than 100 µM and the TGI (SR leukemia) was 89.7 µM. The TGI (SK-MEL-2 melanoma) was greater than 100 µM, the TGI (U251 CNS) was greater than 100 µM and the TGI (SF-295 CNS) was greater than 100 µM. The TGI (RXF 393 renal) was greater than 100 µM, the TGI (HCC-2998 colon) was greater than 100 µM and the TGI (CCRF-CEM leukemia) was greater than 100 µM. It also gave a TGI (CAKI-1 renal) greater than 100 µM, a TGI (PC-3 prostate) greater than 100 µM and a TGI (OVCAR-4 ovarian) greater than 100 µM. The TGI (MCF7 breast) was greater than 100 µM, the TGI (ACHN renal) was greater than 100 µM and the TGI (SK-MEL-5 melanoma) was greater than 100 µM. It also gave a TGI (NCI/ADR-RES ovarian) greater than 100 µM, a TGI (OVCAR-3 ovarian) greater than 100 µM and a TGI (HT29 colon) greater than 100 µM. For the same compound, the TGI (OVCAR-5 ovarian) was greater than 100 µM, the TGI (MDA-MB-231 breast) was greater than 100 µM and the TGI (LOX IMVI melanoma) was greater than 100 µM. For the same compound, the TGI (SK-MEL-28 melanoma) was greater than 100 µM, the TGI (EKVX NSCLC) was greater than 100 µM and the TGI (COLO 205 colon) was greater than 100 µM.
